Measured values taken from patent US20160199463A1, “HDAC2 DEFENDS VASCULAR ENDOTHELIUM FROM INJURY” (The Johns Hopkins University, priority 2014, published 2016).
“Also recorded” adds a separate entry of the source. Where two headings read alike, the source gives them in different places. Numbered stars: 1 amine (or outer) side, 2 acyl side, 3 side chain; on linkers, the order of the positions; unused ones are H or OH. Bridge positions count the residues as written; N and C are the ends. Square brackets hold non-standard residues; d marks the D form. Peptide text beside a SMILES is read from it. I, II: the chains in the order shown. * marks the point of attachment. Actinocin(9to1) = Cc1c2oc3c(C)ccc(C(=O)[*:1])c3nc-2c(C(=O)[*:2])c(N)c1=O; NMeV = CN[C@H](C(=O)O)C(C)C; Cbz = O=C(OCc1ccccc1)*; Sar = CNCC(=O)O

Tests used:
[1] = tested on: Arg2; test: Arg2 protein expression in HAECs (Western blot); assay type: cell-based, human; conditions: for TSA (1 μmol/L) effect on Arg2 expression in pretreated cells: pretreatment with actinomycin D or cycloheximide (10 μg/mL); for OxLDL-induced increase in abundance of endothelial arginase: preincubation 8 h, MLN4924 1 μM or MG132 10 μM, then OxLDL 50 μg/mL 24 h
Procedure: (§1) After 48 hrs of HAEC cells transfection, cells were lysed in ice cold RIPA lysis buffer consisting of 20 mM Tris-HCl at pH 7.5, 150 mM NaCl, 1 mM EDTA, 1 mM EGTA, 1% NP40, 1% sodium deoxycholate, 1 mM Na3VO4, 2.5 mM sodium pyrophosphate, 1 mM 3-glycerophosphate, 1 μg/mL leupeptin, and a 1:1000 diluted protease inhibitor cocktail (Sigma). For immunoprecipitation studies, whole cell lysate lysates were centrifuged at 14,000×g and supernatants were precleared by incubation with Protein A/G-agarose beads for 2 h at 4° C. with rocking. Agarose beads were then pelleted by centrifugation at 1,000×g. FLAG-Arg2 in precleared lysates were immunoprecipitated by incubation overnight at 4° C. with rocking following addition of anti-FLAG antibody (10 μl). Immune complexes were eluted in 2×SDS sample buffer by boiling for 5 minutes before loading into SDS-PAGE. Western blotting analysis was performed by transferring the SDS gel onto a PVDF membrane and visualized using secondary antibodies conjugated to alkaline phosphatases.

[2] = tested on: NO production in HAECs; test: Nitric oxide production in HAECs (DAF-DA fluorescence, Siever's NO analyzer); assay type: cell-based, human; conditions: TSA 1 μmol/L with ABH (1 μmol/L)
Procedure: (§2) Nitric Oxide levels in HAEC were determined using DAF-DA as per manufacture instructions (Life Sciences). Briefly, cells were loaded with DAF-DA (5 μM) for 20 min and washed 3 times with PBS and incubated for another 30 min in phenol-free media. Fluorescence was determined using a Nikon TE-200 epifluorescence microscope. Images were captured with a Rolera EMC2 camera (Q-Imaging, BC, Canada) with Velocity software (PerkinElmer, Lexington, Mass.). NO production in the cell culture media was also determined by measuring Nitrite levels using a Siever's NO analyzer. NO radicals were measured in cell media collected after 24 hours of treatment using the Oxiselect assay (Cell Biolabs, San Diego, Calif.).

[3] = tested on: calcium-insensitive eNOS in HEK 293 cells; test: NO radicals in medium of HEK 293 cells expressing calcium-insensitive eNOS (DCFH-DiOxyQ assay); assay type: cell-based, human; conditions: TSA together with ABH
Procedure: as §2
Next, the functional consequences of HDAC inhibition on downstream endothelial cell signaling were evaluated. Because eNOS-derived NO plays a central role in endothelial function, eNOS activity was assessed by measuring NO production using 3 different assays. […] HEK 293 cells lack native eNOS expression, but do produce abundant Arg2. Cell medium from 293 cells transfected with a control plasmid (LacZ) was used as a control background signal that was subtracted from all the groups containing calcium-insensitive endothelial nitric oxide synthase.

[4] = tested on: aortic rings of wild-type mice; test: Force tension (wire) myography, vascular relaxation of isolated wild-type mouse aortic rings; assay type: cell-based; parameters: Emax: dose or concentration left out as unconfirmed; conditions: for endothelium-independent responses to SNP, dose-dependent vasorelaxation: MGCD0103, MLN4924 or both, FIG. 29B
Procedure: (§3) Mouse aorta was isolated and cleaned in ice-cold Krebs-Ringer-bicarbonate solution containing the following (in mM): 118.3 NaCl, 4.7 KCl, 1.6 CaCl2, 1.2 KH2 PO4, 25 NaHCO3, 1.2 MgSO4, and 11.1 dextrose. The aorta was immersed in a bath filled with constantly oxygenated Krebs buffer at 37° C. Equal size thoracic aortic rings (2 mm) were mounted using a microscope, ensuring no damage to the smooth muscle or endothelium. One end of the aortic rings was connected to a transducer, and the other to a micromanipulator. Aorta was passively stretched to an optimal resting tension using the micromanipulator, after which a dose of 60 mM KCl was administered, and repeated after a wash with Krebs buffer. After these washes, all vessels were allowed to equilibrate for 20-30 min in the presence of indomethacin (3 μM). Phenylephrine (1 μM) was administered to induce vasoconstriction. A dosedependent response (1 nM to 10 μM), with the muscarinic agonist, ACH or nitric oxide donor, SNP, was then performed as necessary. The responses were repeated in the presence of inhibitors. Relaxation responses were calculated as a percentage of tension following pre-constriction. Sigmoidal dose-response curves were fitted to data with the minimum constrained to 0. Two to four rings were isolated from each animal and the number of animals in each group (n) was 6.

[5] = tested on: HDAC; conditions: cited from earlier work
[6] = tested on: eNOS; test: eNOS expression in HAECs (immunoblot); assay type: cell-based, human; conditions: 1 μmol/L, 18 hours
Procedure: as §1

[7] = tested on: HDAC2; conditions: low-dose; cited from earlier work
[8] = tested on: Arg2 mRNA; test: Arg2 mRNA in HAECs (RT-PCR, real-time PCR); assay type: cell-based, human
Procedure: Total RNA was extracted from segments of mice aortas and HAEC using Trizol and PureLink (Invitrogen). RNA was then reverse transcribed with oligo dT primers to obtain cDNA and quantitative real time PCR (Applied Biosystems) was performed using SYBR Green Supermix mix (Applied Biosystems) whereas semiquantitative RTPCR was performed using conventional Biorad PCR machine and the following primer sets: Real Time PCR data are expressed as “fold change”, which is calculated as 2-ΔΔCt.

[9] = tested on: HDAC4, 5, 6, 7, and 8; conditions: cited from earlier work
[10] = tested on: aortic rings from Arg2−/− mice; test: Force tension (wire) myography, vascular relaxation of aortic rings from Arg2-/- mice; assay type: cell-based, mouse; conditions: Mus musculus, 18 h; read-out: Emax endothelium-dependent relaxation
Procedure: as §3

[11] = tested on: SIRT; conditions: cited from earlier work
[12] = tested on: arginase activity in HAECs; test: Arginase activity assay (urea production) in HAEC lysates; assay type: cell-based, human; conditions: for OxLDL-induced increase in activity of endothelial arginase: preincubation 8 h, MLN4924 1 μM or MG132 10 μM, then OxLDL 50 μg/mL 24 h
Procedure: HAEC were lysed using RIPA buffer (50 mM of Tris.HCl, pH 7.5, 0.1 mM EDTA, 0.1% Triton X-100, and protease inhibitor), and centrifuged for 30 min at 14,000 g at 4° C. 50 μL (50-100 μg) of supernatant was added to 75 μl of 10 mM MnCl2 made in Tris-HCl (50 mM, pH 7.5) and heat activated by incubating at 55-60° C. for 10 min. 50 μL of L-Arginine that was prepared in 300 mM Tris-HCL, pH 9.7 were then added to the activated cell lysates to achieve final concentrations of 150 mM and incubated at 37° C. for 3 hrs with shaking. The reaction was stopped by adding 400 μL of an acid solution (H2SO4: H3PO4: H20=1:3:7). For colorimetric determination of urea, α-isonitrosopropiophenone (25 μL, 9% in ethanol) was added and further heated at 100° C. for 45 min. Samples were allowed to cool at room temperature in the dark for 10 min and urea concentration was determined by measuring absorbance at 550 nm using a spectrophotometer.

[13] = tested on: NEDD8; test: Protein NEDDylation in HAECs (immunoblot, immunoprecipitation); assay type: cell-based, human; conditions: HAEC expressing HA-tagged-NEDD8; MLN4924 0, 0.1, 0.3 or 1 μM, dose-dependent
Procedure: FIG. 21A-FIG. 21H is a series of graphs and photographs of immunoblots showing inhibition of NEDDylation by MLN4924 improves OxLDL-mediated vascular endothelial dysfunction via downregulation of Arginase 2. Wire myography was used to measure vasorelaxation with acetylcholine (FIG. 21A, Ach) and sodium nitroprusside (FIG. 21B, SNP) in isolated mice aortas. Conditions included 24 h of OxLDL (50 μg/mL) or control medium preceded by 1 h with either vehicle (DMSO) or MLN4924 (1 μM). […] Note that native (and not transgene) HDAC2 protein levels are shown here. […] Note that “0 μgHA-NEDD8” denotes an empty vector (pcDNA3.1) control. *Indicates p b 0.05 vs control; **indicates p b 0.001; n=6 for vascular reactivity and arginase activity assays.
Densitometry analysis of data from three experiments is shown in top panel. […] Note that “0 μg HA-NEDD8” denotes an empty vector (pcDNA3.1) control. […] Western blots in this figure are representative of 3 independent experiments.

[14] = tested on: HDAC2; test: HDAC2 protein expression in HAECs (immunoblot); assay type: cell-based, human; conditions: for HDAC2 levels in OxLDL-exposed HAEC: pretreatment 8 h, MLN4924 1 μM or MG132 10 μM, then OxLDL 50 μg/mL 24 h
Procedure: as §1

[15] = MS275 2 μmol/L, CI994 1 μmol/L, MC1568 0.5 μmol/L, PC34051 100 nmol/L, MGCD0103 1 μmol/L

Nc1ccccc1NC(=O)c1ccc(CNC(=O)OCc2cccnc2)cc1 [MS275, Entinostat]
endothelial Arg2 expression, class-specific HDAC inhibitors [1, 15]: no substantial effects

NC(CCCCB(O)O)C(=O)O (stereo not shown) [ABH, amino-2-borono-6-hexanoic acid]
TSA-induced decrease of NO production on coincubation with ABH [2]: failed to occur
TSA effect on NO production in the presence of ABH [3]: failed to attenuate
Emax acetylcholine-mediated vasorelaxation, TSA-treated rings pretreated with ABH ([4]; TSA 200 nmol/L plus ABH (1 mmol/L), n=6): 65.7±12.1%

COc1ccc(Cn2ccc3ccc(C(=O)NO)cc32)cc1 [PCI-34051]
endothelial Arg2 expression, class-specific HDAC inhibitors [1]: no substantial effects; also recorded: slight increase

O=C(CCCCCCC(=O)Nc1ccccc1)NO [SAHA, Suberoylanilide Hydroxamic Acid]
HDAC classes blocked [5]: 10 nM; block Class I and Class II HDACs
eNOS expression [6]: negligible effect

CC(=O)Nc1ccc(C(=O)Nc2ccccc2N)cc1 [CI994, Tacedinaline]
endothelial Arg2 expression, class-specific HDAC inhibitors [1, 15]: no substantial effects

Cn1c(=O)c2[nH]cnc2n(C)c1=O [theophylline, 1,3-dimethylxanthine]
HDAC2 activity and expression in alveolar macrophages [7]: increases

Cc1c2oc3c(C)ccc(C(=O)N[C@@H]4C(=O)N[C@H](C(C)C)C(=O)N5CCC[C@H]5C(=O)N(C)CC(=O)N(C)[C@@H](C(C)C)C(=O)O[C@@H]4C)c3nc-2c(C(=O)N[C@@H]2C(=O)N[C@H](C(C)C)C(=O)N3CCC[C@H]3C(=O)N(C)CC(=O)N(C)[C@@H](C(C)C)C(=O)O[C@@H]2C)c(N)c1=O [actinomycin D] (I: T[dV]P[Sar][NMeV] / II: T[dV]P[Sar][NMeV]; ester I:1-I:C, II:1-II:C; linker I:N-II:N via Actinocin(9to1))
OxLDL-induced rise in Arg2 mRNA levels ([8]; with Actinomycin D): ablated
TSA (1 μmol/L) effect on Arg2 expression in pretreated cells [1]: failed to increase

Nc1ccccc1NC(=O)c1ccc(CNc2nccc(-c3cccnc3)n2)cc1 [MGCD0103, Mocetinostat]
activity to HDAC4, 5, 6, 7, and 8 [9]: selectivity against HDAC2, 3, and 11, and no
endothelium-independent responses to SNP, dose-dependent vasorelaxation [4]: no significant differences
Ach response in WT aorta ([4]; MGCD0103 preincubation 48 hours): significant attenuation
Emax ([4]; Mus musculus, 18 h, read-out: Emax endothelial-dependent vascular relaxation (acetylcholine)): 42.7 ± 8.5%
SNP-mediated (endothelium-independent) vasorelaxation versus vehicle-only control ([4]; TSA 200 nmol/L or MGCD0103 1 μmol/L, 18 hours): no significant difference; also recorded: unaffected
endothelial Arg2 expression, class-specific HDAC inhibitors [1]: upregulate
Emax at 1 µM [10]: 62.4 ± 16.5%

NC(=O)c1cccnc1 [Nicotinamide]
Arg2 mRNA expression ([8]; nicotinamide 0.1 or 0.2 mmol/L, 18 hours): No changes
Arg2 mRNA levels ([8]; nicotinamide (5 mmol/L) as printed): no effect
IC50 [11]: < 50 µM
Arg2 protein levels ([1]; nicotinamide 5 mmol/L): no effect
HAEC arginase activity, short-term ([12]; 30 minutes, nicotinamide 5 mmol/L, TSA 1 μmol/L): activating effect

NS(=O)(=O)OC[C@@H]1C[C@@H](n2ccc3c(N[C@H]4CCc5ccccc54)ncnc32)C[C@@H]1O [MLN4924]
quantity of NEDDylation conjugates [13]: attenuated
endothelium-independent responses to SNP, dose-dependent vasorelaxation [4]: no significant differences
endothelial function (acetylcholine dose response) in OxLDL-exposed aortas ([4]; MLN4924 1 μM 1 h before OxLDL 50 μg/mL 24 h): Substantial rescue
Ach response in WT aorta ([4]; MLN4924 1.0 μM pretreatment): did not cause any significant changes
vascular endothelial dysfunction induced by MGCD0103 ([4]; MLN4924 1.0 μM together with MGCD0103): did not reverse
endothelial-dependent vascular relaxation, compound alone ([4]; MLN4924 1 μM without OxLDL): negligible effect
endothelial-independent vascular relaxation (sodium nitroprusside) ([4]; OxLDL 50 μg/mL 24 h, MLN4924 1 μM): unaffected
OxLDL-induced increase in abundance of endothelial arginase [1]: abolished
HDAC2 protein expression in the absence of OxLDL ([14]; MLN4924 0, 0.1, 0.3 or 1 μM): robust dose-dependent increase
HDAC2 levels in OxLDL-exposed HAEC [14]: rescued
arginase activity in the absence of OxLDL ([12]; MLN4924 1 μM): decreased
OxLDL-induced increase in activity of endothelial arginase [12]: abolished

O=C(CCCCCN1C(=O)c2cccc3cccc(c23)C1=O)NO [Scriptaid]
Arg2 expression, broad-spectrum HDAC inhibitors ([1]; 1 μmol/L, 18 hours): upregulated
eNOS expression [6]: negligible effect

CC(C)C[C@@H](C=O)NC(=O)[C@H](CC(C)C)NC(=O)[C@H](CC(C)C)NC(=O)OCc1ccccc1 [MG132] (Cbz-Leu-Leu-Leu-aldehyde)
OxLDL-induced increase in abundance of endothelial arginase [1]: abolished
decrease of HDAC2 levels by HA-NEDD8 expression ([14]; MG132 10 μM, 8 h): abolished
HDAC2 levels in OxLDL-exposed HAEC [14]: rescued
OxLDL-induced increase in activity of endothelial arginase [12]: abolished

C[C@@H]1C[C@@H]([C@H](O)CC2CC(=O)NC(=O)C2)C(=O)[C@@H](C)C1 [cycloheximide]
TSA (1 μmol/L) effect on Arg2 expression in pretreated cells [1]: failed to increase
OxLDL-induced peak in Arg2 protein levels ([1]; with cycloheximide): ablated
